The numbers were not newly measured in patent publication US8431154B2, “Oral dosage form containing a PDE 4 inhibitor as an active ingredient and polyvinylpyrrolidone as excipient” (Takeda GmbH, priority 2002, dated 2013), which cites them from elsewhere.

The conditions of the data set: as referred to for U.S. Pat. No. 5,286,494.

As to `COc1ccc(C2CNC(=O)C2)cc1OC1CCCC1` (stereo not shown) [Rolipram], the solubility result is listed as “solubility is slight”.
